Molecules are shown by their SMILES. Active and inactive are the calls of the source.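 How the source made its calls: active means IC50 at or below 10 µM; inactive means IC50 above 10 µM.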

From PubChem BioAssay AID624408 (The Scripps Research Institute Molecular Screening Center, 2012) come the findings set out here.

This experiment relates to parental CHO-K1, ATP-induced calcium, Fluo-8 fluorescence. Kind of experiment: Gq calcium signaling inhibition in parental CHO, late-stage follow-up, artefact control for OX1R antagonist project, cell-based, fluorescence, dose response (AID 624408).
On to `CCc1cc2c(SCC(=O)N(CC)c3c(N)n(Cc4ccccc4)c(=O)[nH]c3=O)ncnc2s1`, for which the IC50 is > 59.6 µM (inactive).

Turning to `Fc1cccc(Nc2nc3ccccc3n3cnnc23)c1`, the IC50 was > 59.6 µM (inactive). For the compound `Cc1cccc(C=NNC(=O)c2cc3c(s2)-c2ccccc2CC3)c1`, the IC50 was > 59.6 µM (inactive).

In the case of `O=C(CSc1ccc(-c2ccccc2)nn1)c1cccs1`, the IC50 was > 59.6 µM (inactive). Then `CCOc1ccccc1C(=O)Nc1ccc2nc3n(c(=O)c2c1)CCCCC3`, with > 59.6 µM (inactive); and `COc1ccc(OC)c(S(=O)(=O)NCC(c2ccco2)N2CCc3ccccc32)c1` (stereo unspecified), with > 59.6 µM (inactive); and `Cc1cccc(NC(=O)[C@@H]2CCCN2S(=O)(=O)c2ccc(Cl)cc2)c1`, with > 59.6 µM (inactive). On to `O=C(CN1C(=O)/C(=C\c2cccc(Br)c2)Oc2ccccc21)NCC1CCCO1` (stereo unspecified), for which the IC50 is > 59.6 µM (inactive).

For `COc1cccc(/C=C2/Oc3ccccc3N(CC(=O)NCC3CCCO3)C2=O)c1` (stereo unspecified), the IC50 was > 59.6 µM (inactive). `Cc1c(NS(=O)(=O)c2cccc(C(=O)OCC(=O)N(C)C3CCCCC3)c2)c(=O)n(-c2ccccc2)n1C`: the IC50 was > 59.6 µM (inactive). Turning to `Cc1ccc(-c2csc3nnc(SCC(=O)Nc4nsc(-c5ccccc5)n4)n23)cc1`, the IC50 was > 59.6 µM (inactive). In the case of `CSc1cccc(NC(=O)C2CCCN2S(=O)(=O)c2ccc(Br)s2)c1` (stereo unspecified) it was 20.4 µM (inactive). As to `CCN(CC)c1ccc(NC(=O)Cn2c(C(C)NC(=O)c3ccccc3)nc3ccccc32)cc1` (stereo unspecified), the IC50 is > 59.6 µM (inactive). In the case of `Cc1cc(Cl)ccc1OCCCC(=O)NCCN1C(=O)S/C(=C\c2cccnc2)C1=O`, the IC50 was 7.22 µM. Regarding `Cc1ccccc1NC(=O)C1CCCN1S(=O)(=O)c1ccccc1C(F)(F)F` (stereo unspecified), the IC50 was > 59.6 µM (inactive). Regarding `COCCCNC(=O)CCC(=O)NNc1nc2ccccc2c2nc(-c3ccccc3)nn12`, the IC50 was > 59.6 µM (inactive). Then `CCn1c(SCC(=O)Nc2ccc3c(c2)c2ccccc2n3CC)nnc1-c1cnccn1`, with > 59.6 µM (inactive). As for `CCOC(=O)N1CCN(C(=O)CSc2ccc(-c3ccccc3)nn2)CC1`, the IC50 is > 59.6 µM (inactive). For the compound `CC(=C/c1ccccc1)/C=C1/SC(N2CCOCC2)=NC1=O`, the IC50 was 52.1 µM (inactive). For `CCc1cc(C(=O)OCC(=O)N2CCC(c3ccccc3)=N2)sc1C`, the IC50 was > 59.6 µM (inactive). Then `CCSC1=C(C#N)C(c2ccccc2Cl)C(C(=O)c2cccs2)C(O)(C(F)(F)F)N1` (stereo unspecified), with 21.8 µM (inactive). As for `COc1cc(OC)c(-c2nc3ccccc3s2)cc1OC`, the IC50 was > 59.6 µM (inactive).

`O=c1cc(CN2CC(O)Cc3ccc4ccccc4c32)nc2sccn12` (stereo unspecified): the IC50 is 55.4 µM (inactive).

As to `CN(N=Cc1cc([N+](=O)[O-])ccc1O)c1ccccc1`, the IC50 is > 59.6 µM (inactive). On to `Cc1noc(C)c1COc1ccc(C(=O)OCC(=O)N2CC(=O)Nc3ccccc32)cc1`, for which the IC50 is > 59.6 µM (inactive). In the case of `CSc1cccc(N2CC(C(=O)NCCN3C(=O)S/C(=C\c4cccnc4)C3=O)CC2=O)c1` (stereo unspecified) it was > 59.6 µM (inactive).

For orientation: IC50 means the concentration at which inhibition is half-maximal.
